In the supplement of paper PMC10307832:

Columns and labels:
Test in all cases: relative viability (nuclei count vs DMSO), 5 days (fraction); higher = more cells survive
[1] = tested on: A-427
Procedure, shortened: (§1)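 After 5 days of treatment, lung cancer cells in 1536-well plates were fixed and stained in a single step (final 0.05% Triton X-100, 1% formaldehyde, 1 ug/ml Hoechst) and their nuclei counted on 4× images. Treatment had been applied by pin tool the day after seeding as one drug alone or as a fixed anchor-drug dose with five library-drug doses (not always all listed) in √10 steps. Relative viability is the nuclei count of treated wells divided by that of vehicle wells, and values are medians of duplicate plates.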

[2] = tested on: CAL-12T
Procedure, shortened: as §1

[3] = tested on: COR-L 105
Procedure, shortened: as §1

[4] = tested on: EMC-BAC-2
Procedure, shortened: as §1

[5] = tested on: HARA
Procedure, shortened: as §1

[6] = tested on: HCC-366
Procedure, shortened: as §1

[7] = tested on: HCC-827
Procedure, shortened: as §1

[8] = tested on: HOP-62
Procedure, shortened: as §1

[9] = tested on: LCLC-103H
Procedure, shortened: as §1

[10] = tested on: NCI-H1355
Procedure, shortened: as §1

[11] = tested on: NCI-H1437
Procedure, shortened: as §1

[12] = tested on: NCI-H1755
Procedure, shortened: as §1

[13] = tested on: NCI-H1792
Procedure, shortened: as §1

[14] = tested on: NCI-H1915
Procedure, shortened: as §1

[15] = tested on: NCI-H1975
Procedure, shortened: as §1

[16] = tested on: NCI-H2009
Procedure, shortened: as §1

[17] = tested on: NCI-H2228
Procedure, shortened: as §1

[18] = tested on: NCI-H23
Procedure, shortened: as §1

[19] = tested on: NCI-H460
Procedure, shortened: as §1

[20] = tested on: NCI-H727
Procedure, shortened: as §1

[21] = tested on: SK-LU-1
Procedure, shortened: as §1

[22] = tested on: SW 1573
Procedure, shortened: as §1

NC(=O)Nc1cc(-c2cccc(F)c2)sc1C(=O)N[C@H]1CCCNC1 [AZD7762] + CC(C)C[C@H](NC(=O)[C@H](Cc1ccccc1)NC(=O)c1cnccn1)B(O)O [Bortezomib] (partner 0.002 µM)
relative viability ([1]; first compound 0.01 µM): 0.988 | relative viability ([1]; first compound 0.03162 µM): 0.965 | relative viability ([1]; first compound 0.1 µM): 0.989 | relative viability ([1]; first compound 0.3162 µM): 1.04 | relative viability ([1]; first compound 1 µM): 0.272 | relative viability ([2]; first compound 0.01 µM): 0.96 | relative viability ([2]; first compound 0.03162 µM): 1.06 | relative viability ([2]; first compound 0.1 µM): 0.931 | relative viability ([2]; first compound 0.3162 µM): 0.641 | relative viability ([2]; first compound 1 µM): 0.23 | relative viability ([3]; first compound 0.01 µM): 0.904 | relative viability ([3]; first compound 0.03162 µM): 0.803 | relative viability ([3]; first compound 0.1 µM): 0.836 | relative viability ([3]; first compound 0.3162 µM): 0.389 | relative viability ([3]; first compound 1 µM): 0.356 | relative viability ([4]; first compound 0.01 µM): 1.12 | relative viability ([4]; first compound 0.03162 µM): 1.08 | relative viability ([4]; first compound 0.1 µM): 1.09 | relative viability ([4]; first compound 0.3162 µM): 1.15 | relative viability ([4]; first compound 1 µM): 1.12 | relative viability ([5]; first compound 0.01 µM): 1.08 | relative viability ([5]; first compound 0.03162 µM): 1.11 | relative viability ([5]; first compound 0.1 µM): 1.14 | relative viability ([5]; first compound 0.3162 µM): 1.13 | relative viability ([5]; first compound 1 µM): 0.42 | relative viability ([6]; first compound 0.01 µM): 1.1 | relative viability ([6]; first compound 0.03162 µM): 1.04 | relative viability ([6]; first compound 0.1 µM): 1.03 | relative viability ([6]; first compound 0.3162 µM): 0.62 | relative viability ([6]; first compound 1 µM): 0.0941 | relative viability ([7]; first compound 0.01 µM): 1.02 | relative viability ([7]; first compound 0.03162 µM): 1.05 | relative viability ([7]; first compound 0.1 µM): 1.16 | relative viability ([7]; first compound 0.3162 µM): 1.08 | relative viability ([7]; first compound 1 µM): 0.929 | relative viability ([8]; first compound 0.01 µM): 0.817 | relative viability ([8]; first compound 0.03162 µM): 0.605 | relative viability ([8]; first compound 0.1 µM): 0.491 | relative viability ([8]; first compound 0.3162 µM): 0.725 | relative viability ([8]; first compound 1 µM): 0.43 | relative viability ([9]; first compound 0.01 µM): 1.19 | relative viability ([9]; first compound 0.03162 µM): 1.08 | relative viability ([9]; first compound 0.1 µM): 1.25 | relative viability ([9]; first compound 0.3162 µM): 0.95 | relative viability ([9]; first compound 1 µM): 0.867 | relative viability ([10]; first compound 0.01 µM): 1.17 | relative viability ([10]; first compound 0.03162 µM): 1.23 | relative viability ([10]; first compound 0.1 µM): 1.21 | relative viability ([10]; first compound 0.3162 µM): 1.27 | relative viability ([10]; first compound 1 µM): 1.19 | relative viability ([11]; first compound 0.01 µM): 0.407 | relative viability ([11]; first compound 0.03162 µM): 0.4 | relative viability ([11]; first compound 0.1 µM): 0.56 | relative viability ([11]; first compound 0.3162 µM): 0.58 | relative viability ([11]; first compound 1 µM): 0.433 | relative viability ([12]; first compound 0.01 µM): 0.919 | relative viability ([12]; first compound 0.03162 µM): 1.03 | relative viability ([12]; first compound 0.1 µM): 1.05 | relative viability ([12]; first compound 0.3162 µM): 0.926 | relative viability ([12]; first compound 1 µM): 0.384 | relative viability ([13]; first compound 0.01 µM): 0.982 | relative viability ([13]; first compound 0.03162 µM): 0.941 | relative viability ([13]; first compound 0.1 µM): 0.925 | relative viability ([13]; first compound 0.3162 µM): 1.01 | relative viability ([13]; first compound 1 µM): 1.04 | relative viability ([14]; first compound 0.01 µM): 0.989 | relative viability ([14]; first compound 0.03162 µM): 0.99 | relative viability ([14]; first compound 0.1 µM): 1.03 | relative viability ([14]; first compound 0.3162 µM): 1.02 | relative viability ([14]; first compound 1 µM): 0.959 | relative viability ([15]; first compound 0.01 µM): 0.468 | relative viability ([15]; first compound 0.03162 µM): 0.44 | relative viability ([15]; first compound 0.1 µM): 0.417 | relative viability ([15]; first compound 0.3162 µM): 0.399 | relative viability ([15]; first compound 1 µM): 0.272 | relative viability ([16]; first compound 0.01 µM): 0.904 | relative viability ([16]; first compound 0.03162 µM): 1.13 | relative viability ([16]; first compound 0.1 µM): 1.08 | relative viability ([16]; first compound 0.3162 µM): 0.839 | relative viability ([16]; first compound 1 µM): 0.794 | relative viability ([17]; first compound 0.01 µM): 1.04 | relative viability ([17]; first compound 0.03162 µM): 1.33 | relative viability ([17]; first compound 0.1 µM): 1.03 | relative viability ([17]; first compound 0.3162 µM): 0.723 | relative viability ([17]; first compound 1 µM): 0.389 | relative viability ([18]; first compound 0.01 µM): 1.26 | relative viability ([18]; first compound 0.03162 µM): 0.986 | relative viability ([18]; first compound 0.1 µM): 0.742 | relative viability ([18]; first compound 0.3162 µM): 0.597 | relative viability ([18]; first compound 1 µM): 0.284 | relative viability ([19]; first compound 0.01 µM): 1.18 | relative viability ([19]; first compound 0.03162 µM): 1.04 | relative viability ([19]; first compound 0.1 µM): 1.18 | relative viability ([19]; first compound 0.3162 µM): 0.88 | relative viability ([19]; first compound 1 µM): 0.0988 | relative viability ([20]; first compound 0.01 µM): 1.04 | relative viability ([20]; first compound 0.03162 µM): 0.878 | relative viability ([20]; first compound 0.1 µM): 0.556 | relative viability ([20]; first compound 0.3162 µM): 0.446 | relative viability ([20]; first compound 1 µM): 0.298 | relative viability ([21]; first compound 0.01 µM): 1.34 | relative viability ([21]; first compound 0.03162 µM): 1.05 | relative viability ([21]; first compound 0.1 µM): 0.853 | relative viability ([21]; first compound 0.3162 µM): 0.36 | relative viability ([21]; first compound 1 µM): 0.269 | relative viability ([22]; first compound 0.01 µM): 1.12 | relative viability ([22]; first compound 0.03162 µM): 1.4 | relative viability ([22]; first compound 0.1 µM): 1.21 | relative viability ([22]; first compound 0.3162 µM): 1.22 | relative viability ([22]; first compound 1 µM): 0.771
